Reference: patent publication US20090215025A1, “SMALL PEPTIDIC AND PEPTIDO-MIMETIC AFFINITY LIGANDS FOR FACTOR VIII AND FACTOR VIII-LIKE PROTEINS” (TECHNISCHE UNIVERSITAT MUNCHEN, priority 2005, published 2009)
[ ]: non-standard residue; d: D form. Bpa = N[C@@H](Cc1ccc(C(=O)c2ccccc2)cc1)C(=O)O; 1Nal = N[C@@H](Cc1cccc2ccccc12)C(=O)O; 2Nal = N[C@@H](Cc1ccc2ccccc2c1)C(=O)O

Key:
[1] = target: T1, plasma-derived (pd-) human Factor VIII (FVIII) (Homo sapiens, UniProt P00451); assay: Binding of 125I-labeled pd-FVIII to peptides immobilized on Toyopearl AF-Epoxy-650M resin (micro-beads assay)
T1 construct: from tissue; host or cells: human blood plasma (FVIII concentrate)
T1 sequence (P00451 20-1667 limits assumed): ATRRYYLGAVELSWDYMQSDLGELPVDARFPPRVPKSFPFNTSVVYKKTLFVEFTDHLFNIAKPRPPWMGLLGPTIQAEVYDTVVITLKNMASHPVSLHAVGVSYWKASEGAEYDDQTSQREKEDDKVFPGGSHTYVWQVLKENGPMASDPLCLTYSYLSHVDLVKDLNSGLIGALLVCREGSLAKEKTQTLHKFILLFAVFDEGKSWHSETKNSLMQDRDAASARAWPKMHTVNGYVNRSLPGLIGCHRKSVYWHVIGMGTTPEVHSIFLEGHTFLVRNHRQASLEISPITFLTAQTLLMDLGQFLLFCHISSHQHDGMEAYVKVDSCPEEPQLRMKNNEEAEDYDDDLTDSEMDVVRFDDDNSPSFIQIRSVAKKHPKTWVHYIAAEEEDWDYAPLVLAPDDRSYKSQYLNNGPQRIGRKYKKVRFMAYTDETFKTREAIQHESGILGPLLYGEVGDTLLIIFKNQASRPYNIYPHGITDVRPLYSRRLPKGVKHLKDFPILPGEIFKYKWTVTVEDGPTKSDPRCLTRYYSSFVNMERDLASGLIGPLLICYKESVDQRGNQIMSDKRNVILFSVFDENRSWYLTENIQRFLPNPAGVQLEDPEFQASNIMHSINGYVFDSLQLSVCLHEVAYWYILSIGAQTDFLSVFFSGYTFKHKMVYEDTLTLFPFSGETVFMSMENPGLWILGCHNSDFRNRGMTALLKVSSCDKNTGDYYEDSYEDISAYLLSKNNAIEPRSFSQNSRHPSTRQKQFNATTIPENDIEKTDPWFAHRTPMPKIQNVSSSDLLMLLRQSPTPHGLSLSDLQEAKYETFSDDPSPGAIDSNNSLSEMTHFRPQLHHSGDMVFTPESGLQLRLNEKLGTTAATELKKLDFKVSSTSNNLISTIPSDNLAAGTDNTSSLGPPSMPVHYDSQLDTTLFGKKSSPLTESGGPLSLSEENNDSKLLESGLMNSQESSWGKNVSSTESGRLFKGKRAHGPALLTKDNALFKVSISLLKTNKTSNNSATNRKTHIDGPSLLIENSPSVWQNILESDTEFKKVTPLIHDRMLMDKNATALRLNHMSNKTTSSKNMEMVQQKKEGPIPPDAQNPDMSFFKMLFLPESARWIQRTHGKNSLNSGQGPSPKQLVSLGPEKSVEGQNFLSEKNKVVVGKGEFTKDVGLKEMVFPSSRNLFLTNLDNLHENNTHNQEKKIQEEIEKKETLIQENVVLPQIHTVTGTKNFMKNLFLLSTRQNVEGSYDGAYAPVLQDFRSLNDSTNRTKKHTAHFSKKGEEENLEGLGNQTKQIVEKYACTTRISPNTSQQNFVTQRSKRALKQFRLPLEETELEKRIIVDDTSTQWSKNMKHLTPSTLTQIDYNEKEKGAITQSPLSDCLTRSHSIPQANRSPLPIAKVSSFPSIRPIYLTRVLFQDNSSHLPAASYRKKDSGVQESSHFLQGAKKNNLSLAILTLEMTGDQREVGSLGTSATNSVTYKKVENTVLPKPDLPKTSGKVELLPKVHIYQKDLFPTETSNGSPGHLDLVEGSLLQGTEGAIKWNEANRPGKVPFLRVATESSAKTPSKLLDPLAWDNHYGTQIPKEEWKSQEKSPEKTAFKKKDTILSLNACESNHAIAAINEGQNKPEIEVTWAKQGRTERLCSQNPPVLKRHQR
T1 sequence (P00451 1668-2351 limits assumed): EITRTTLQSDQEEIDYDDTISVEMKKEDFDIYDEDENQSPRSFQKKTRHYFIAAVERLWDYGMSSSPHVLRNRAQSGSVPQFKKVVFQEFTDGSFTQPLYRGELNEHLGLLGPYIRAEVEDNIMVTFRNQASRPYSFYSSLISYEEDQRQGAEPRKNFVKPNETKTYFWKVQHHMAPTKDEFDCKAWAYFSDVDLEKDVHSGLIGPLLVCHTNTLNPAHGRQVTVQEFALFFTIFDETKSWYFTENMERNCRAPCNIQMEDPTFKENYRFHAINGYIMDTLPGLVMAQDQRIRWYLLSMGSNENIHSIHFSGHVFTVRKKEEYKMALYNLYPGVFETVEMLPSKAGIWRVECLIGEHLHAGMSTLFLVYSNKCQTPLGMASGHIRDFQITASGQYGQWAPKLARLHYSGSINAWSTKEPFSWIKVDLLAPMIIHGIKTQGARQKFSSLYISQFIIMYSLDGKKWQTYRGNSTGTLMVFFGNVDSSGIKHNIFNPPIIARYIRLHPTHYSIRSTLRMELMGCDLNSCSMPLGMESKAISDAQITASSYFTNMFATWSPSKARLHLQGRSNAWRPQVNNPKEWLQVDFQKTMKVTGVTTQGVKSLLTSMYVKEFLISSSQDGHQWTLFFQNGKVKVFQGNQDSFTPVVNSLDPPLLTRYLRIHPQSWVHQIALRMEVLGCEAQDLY
Method: Peptides P1 to P25 were immobilized on the Toyopearl AF-Epoxy-650M resin (Tosoh Biosep) as described by Jungbauer et al. For immobilization, 2.5 mg of each peptide was dissolved in 0.25 mL of the immobilization buffer (0.2 M sodium bicarbonate, pH 10.3), and 0.036 g of the dry resin powder (corresponding to 0.125 mL of swollen resin) was added, followed by incubation of the mixture with gentle rotation for 48 hours. Upon incubation for 48 hours the resin was washed once with immobilization buffer, once with 1 M NaCl and then 3 times with binding buffer, and binding of ^125I-labeled pd-FVIII to the peptide-coated and control resin was tested. The coupling density of each peptide in each of the reported experiments was as mentioned in Table 1. The control 0.25 mL portion of the resin was similarly treated in parallel experiment in the absence of peptide and was subsequently used as a control (designated as Background) in ^125I-pd-FVIII binding experiments. ^125I-pd-FVIII Bound/Background ratios were calculated as the amount of ^125I-pd-FVIII, bound to an immobilized peptide, divided by that bound to uncoated control resin, prepared as described above. This ratio represents a Signal/Noise ratio for the micro-beads assay, since ^125I-pd-FVIII bound to peptide represents the signal value and ^125I-pd-FVIII bound to peptide-uncoated resin represents the background (noise) value.
Plasma-derived (pd-) human Factor VIII (FVIII) was purified from concentrate by immunoaffinity chromatography on an anti-FVIII monoclonal antibody column followed by subsequent concentration of pd-FVIII by ion-exchange chromatography using Resource Q HR5/5 column. To separate FVIII from vWf, concentrate was incubated in 0.35 M NaCl, 0.04 M CaCl2, prior to affinity purification.
Trace amounts of vWf, which are potentially present in pd-FVIII preparation, were removed by passing pd-FVIII preparation through the column with anti-vWf high affinity monoclonal antibody, immobilized at the density 1.4 mg per mL of resin.
Ten μg of purified pd-FVIII were iodinated using lactoperoxidase beads and 0.5 mCi of Na^125I.
The resin with immobilized peptides was washed in the binding buffer (0.01 M Hepes, 0.1 M NaCl, 5 mM CaCl2, 0.01% Tween-80). Subsequently, the resin was diluted in the binding buffer as 1:7 slurry and aliquoted into Eppendorf tubes (40 μl per tube). ^125I-pd-FVIII (100000 cpm in 10 μl) was added to the tubes and the volume of the mixture was adjusted to 100 μl by adding 50 μl of the binding buffer containing 4% BSA to give a 2% final concentration of BSA. After 2 hours of incubation at room temperature on a rotator, the samples were washed 4 times in the binding. After each wash the tubes were centrifuged at 5000 rpm for 1 min in an Eppendorf microcentrifuge, supernatant was discarded, and the resin was re-suspended in the washing buffer, followed by centrifugation under the same conditions. After four washes the tubes with pellet without supernatant were counted for radioactivity. The resin without peptide was processed similarly to account for non-specific pd-FVIII binding to tubes and resin itself, and the radioactivity in this control tube was considered as a background value. Since ^125I-pd-FVIII contains the some fraction damaged during radiolabeling, binding was calculated as a percent of maximal achievable binding, determined in separate experiment with anti-FVIII Mab 8860-coated resin.
All the measurements were performed in duplicates. Each experiment was performed using two independently prepared immobilized peptide samples. The data presented in each figure are the mean values of the four determinations: duplicate determination in the two assays performed with beads on which peptides were independently immobilized on the different days. […]

pd-FVIII [2] = target: T2, pd-FVIII (Homo sapiens, UniProt P00451); assay: Affinity chromatography purification of FVIII on peptide-coated resin column (OD280, one-stage APTT activity); settings: P1; Pure fVIII
T2 construct: from tissue; host or cells: human blood plasma (FVIII concentrate)
T2 sequence (P00451 20-1667 limits assumed): as the sequence (P00451 20-1667 limits assumed) above
T2 sequence (P00451 1668-2351 limits assumed): as the sequence (P00451 1668-2351 limits assumed) above
Method: The peptido-mimetic derivative P22 was immobilized on the Toyopearl resin as described in Example 1. 25 mg of peptide and 360 mg of resin were used. The resulting resin (˜1 ml) was packed in a glass column (Pharmacia-Biotech). The purification procedure was performed using a Waters 650E Advanced Protein Purification System. Buffer A was 0.01 M Hepes, 0.1 M NaCl, 5 mM CaCl2, 0.01% Tween-80 and Buffer B was 0.01 M Hepes, 1 M NaCl, 5 mM CaCl2, 0.01% Tween-80 (pH 6.8). The elution was monitored by a flow-through UV detector (Waters 490 E) by optical density at 280 nm (OD280). The elution fractions were then analyzed for their protein content by determining OD280 and FVIII activity was determined in a one-stage APTT assay using MLA Electra-800 automatic coagulation timer. The samples from elution fractions were analyzed by 10% PAGE followed by silver staining and Western blotting using monoclonal antibodies against FVIII.
FVIII (0.5 mg), previously purified by immunoaffinity and ion-exchange chromatography as described above, was diluted by 0.01 M Hepes, 5 mM CaCl2, 0.01% Tween-80 to a final salt concentration of 0.1 M NaCl. The mixture was applied onto the P22-column, followed by wash with Buffer A, until the OD280 returned to background.
The purification of FVIII was performed from cell-conditioned FBS-containing SF9 media, spiked with FVIII. FVIII (0.5 mg), previously purified by immunoaffinity and ion-exchange chromatography as described above, was mixed with cell-conditioned FBS-containing SF9 media, which was diluted with 0.01 M Hepes, 5 mM CaCl2, 0.01% Tween-80 to a final salt concentration of 0.1 M NaCl. The mixture was applied onto the column, followed by wash with Buffer A, until the OD280 returned to background. The wash with 85% Buffer A 15% Buffer B was performed to elute some of bound contaminating proteins.
Peptide P1 was bonded to the resin as described in Example 1. 25 mg of peptide and 360 mg of resin were used. The resulting resin (˜1 ml) was packed in a glass column (Pharmacia-Biotech). A FVIII containing sample was purified as described with respect to Example 3, the only difference between the two experiments being the absence of a prelusion step with Buffer A in the present experiment.

pd-FVIII [3] = target: T2, pd-FVIII; assay: as above; settings: P1; FBS-containing conditioned DMEM spiked with FVIII
[4] = Table 1, 125I-pd-FVIII Bound/Background ratio versus uncoated control resin
[5] = Table 1, immobilized on Toyopearl AF-Epoxy-650M, percent of maximal achievable binding (anti-FVIII Mab 8860-coated resin), mean of four determinations

Compound	Binding, rel. to control [1, 4]	% Binding pdFVIII [1, 5] [%]	other results
O=C(O)CCC(NCCc1c[nH]c2ccccc12)C(=O)NC(Cc1ccc(O)cc1)C(=O)NC(CS)C(=O)O (stereo not shown) [Compound P25]	22.7 ± 0.8	53.7 ± 1.9	
Ac-Trp-Glu-Tyr-Cys-NH2 (Ac-WEYC-NH2) [Compound P2]	18.9 ± 2.0	53.6 ± 5.7	
ECYYEHWS [scrambled, reference compound]			% Binding pdFVIII ([1]; Table 2, comparative compound immobilized on Toyopearl AF-Epoxy-650M): 6.5 ± 0.5%; Binding, rel. to control ([1]; Table 2, ratio versus uncoated resin): 4.1 ± 0.3
H-D-Cys-D-Tyr-D-Glu-D-Trp-OH [Compound P7]	19.8 ± 0.3	56.1 ± 0.9	
H-Trp-Asp-Tyr-Cys-OH (H-WDYC-OH) [Compound P11]	24.7 ± 2.7	62.8 ± 6.9	
H-Trp-Glu-Phe-Cys-OH (H-WEFC-OH) [Compound P8]	8.7 ± 0.1	24.7 ± 0.1	
H-Trp-Glu-Tyr(OMe)-Cys-OH [Compound P10]	19.0 ± 3.0	54.1 ± 8.4	
H-Trp-Glu-Tyr-Aha-Cys-OH [Compound P5]	22.2 ± 1.9	42.7 ± 2.3	
H-Trp-Glu-Tyr-Cys-OH (H-WEYC-OH) [Compound P1]	20.9 ± 1.7	47.6 ± 4.0	Activity, Elution (pd-FVIII [2]): 552 IU/ml; Activity, Flow-through (pd-FVIII [2]): 9 IU/ml; OD 280, Elution (pd-FVIII [2]): 0.108; OD 280, Flow-through (pd-FVIII [2]): 0.02; Purification, times (pd-FVIII [2]): 2 times; Activity, Elution (pd-FVIII [3]): 66 IU/ml; Activity, Flow-through (pd-FVIII [3]): 6 IU/ml; OD 280, Elution (pd-FVIII [3]): 0.08; OD 280, Flow-through (pd-FVIII [3]): 0.49; Purification, times (pd-FVIII [3]): 13 times
H-Trp-Glu-Tyr-Gly-Aha-Cys-OH [Compound P6]	15.2 ± 0.7	43.1 ± 2.0	
H-Trp-Glu-Tyr-Gly-Cys-OH (H-WEYGC-OH) [Compound P4]	27.4 ± 1.3	52.7 ± 2.5	
H-Trp-Glu-Tyr-homo-Cys-OH [Compound P3]	21.9 ± 1.3	38.4 ± 2.3	
H-WE[1Nal]C-OH [Compound P9]	23.8 ± 2.2	60.9 ± 5.5	
H-[1Nal]EYC-OH [Compound P13]	26.1 ± 2.3	66.8 ± 5.9	
H-[2Nal]EYC-OH [Compound P14]	22.7 ± 2.4	58.1 ± 6.1	
H-[Bpa]EYC-OH [Compound P12]	22.3 ± 0.5	57.0 ± 1.39	
IAA-Asp-Tyr-Cys-OH [Compound P16]	24.7 ± 0.3	70.1 ± 0.8	
IBA-Asp-Tyr-Cys-OH [Compound P18]	20.2 ± 2.5	57.2 ± 7.2	
IBA-Glu-Tyr-Cys-OH [Compound P17]	24.7 ± 1.5	62.7 ± 3.9	
IPA-Asp-Tyr-Cys-OH [Compound P20]	21.4 ± 1.4	60.7 ± 4.1	
IPA-Glu-Tyr-Cys-OH [Compound P19]	18.7 ± 1.7	53.2 ± 4.9	
